Laboratory results taken from article PMC12029836, “Phytotoxicity, Cytotoxicity, and Antimicrobial Activity of Triethanolammonium Amino Acids Salts” (Molecules, 2025).
Where two headings read alike, the source gives them in different places.

Columns and labels:
[1] = test system: Lepidium sativum L. seeds; settings: 24 h incubation, mean(±SD), n = 3
[2] = test system: Lepidium sativum L. roots; settings: 24 h incubation, mean(±SD), n = 3
[3] = 0.01% (w/w) compound in the medium
[4] = 0.03% (w/w) compound in the medium
[5] = 0.05% (w/w) compound in the medium
[6] = 0.10% (w/w) compound in the medium
[7] = 0.30% (w/w) compound in the medium
[8] = 0.50% (w/w) compound in the medium
[9] = 1.00% (w/w) compound in the medium
[10] = 2.00% (w/w) compound in the medium
[11] = 3.00% (w/w) compound in the medium
[12] = 4.00% (w/w) compound in the medium
[13] = 5.00% (w/w) compound in the medium

| Compound | Inhibition of the Lepidium sativum seeds germination (ISG, %) [1, 3] | Inhibition of the Lepidium sativum seeds germination (ISG, %) [1, 4] | Inhibition of the Lepidium sativum seeds germination (ISG, %) [1, 5] | Inhibition of the Lepidium sativum seeds germination (ISG, %) [1, 6] | Inhibition of the Lepidium sativum seeds germination (ISG, %) [1, 7] | Inhibition of the Lepidium sativum seeds germination (ISG, %) [1, 8] | Inhibition of the Lepidium sativum seeds germination (ISG, %) [1, 9] | Inhibition of the Lepidium sativum seeds germination (ISG, %) [1, 10] | Inhibition of the Lepidium sativum seeds germination (ISG, %) [1, 11] | Inhibition of the Lepidium sativum seeds germination (ISG, %) [1, 12] | Inhibition of the root growth in pregerminated Lepidium sativum seeds (IRG, %) [2, 3] | Inhibition of the root growth in pregerminated Lepidium sativum seeds (IRG, %) [2, 4] | Inhibition of the root growth in pregerminated Lepidium sativum seeds (IRG, %) [2, 5] | Inhibition of the root growth in pregerminated Lepidium sativum seeds (IRG, %) [2, 6] | Inhibition of the root growth in pregerminated Lepidium sativum seeds (IRG, %) [2, 7] | Inhibition of the root growth in pregerminated Lepidium sativum seeds (IRG, %) [2, 8] | Inhibition of the root growth in pregerminated Lepidium sativum seeds (IRG, %) [2, 9] | Inhibition of the root growth in pregerminated Lepidium sativum seeds (IRG, %) [2, 10] | Inhibition of the root growth in pregerminated Lepidium sativum seeds (IRG, %) [2, 11] | Inhibition of the root growth in pregerminated Lepidium sativum seeds (IRG, %) [2, 12] | also measured |
| --- | --- | --- | --- | --- | --- | --- | --- | --- | --- | --- | --- | --- | --- | --- | --- | --- | --- | --- | --- | --- | --- |
| NC(=O)C[C@H](N)C(=O)O.OCCN(CCO)CCO [[TEA][Asn]] | 5.6(±2.9) % | 6.5(±1.3) % | 7.4(±0.5) % | 9.3(±1.3) % | 12.0(±0.9) % | 14.8(±2.4) % | 20.4(±2.6) % | 33.3(±2.9) % | 46.3(±0.9) % | 67.6(±2.9) % | 4.5(±1.6) % | 11.6(±1.6) % | 16.0(±1.6) % | 32.5(±1.7) % | 34.9% | 42.7(±1.5) % | 58.9(±1.1) % | 76.9(±1.0) % | 81.5(±0.9) % | 85(±0.8) % | Inhibition of the Lepidium sativum seeds germination (ISG, %) [1, 13]: 88.9(±1.4) %; Inhibition of the root growth in pregerminated Lepidium sativum seeds (IRG, %) [2, 13]: 88.2(±0.7) % |
| NC(=O)CCC(N)C(=O)O.OCCN(CCO)CCO (stereo not shown) [[TEA][Gln]] | 0.0(±0.0) % | 0.0(±0.0) % | 0.0(±0.0) % | 1.7(±2.2) % | 9.2(±1.3) % | 15.0(±0.5) % | 20.8(±2.6) % | 38.1(±2.1) % | 53.8(±2.5) % | 86.7(±1.3) % | 13.0(±2.0) % | 20.7(±1.8) % | 21.0(±2.2) % | 26.9(±1.8) % | 50.5% | 63.6(±1.3) % | 72.9(±0.9) % | 78.1(±1.0) % | 85.2(±0.9) % | 92.4(±0.5) % | Inhibition of the root growth in pregerminated Lepidium sativum seeds (IRG, %) [2, 13]: 93.6(±0.5) % |
| CCC(C)C(N)C(=O)O.OCCN(CCO)CCO [[TEA][Ile]] | 0.0(±1.9) % | 0.0(±1.4) % | 0.0(±0.8) % | 0.0(±0.5) % | 3.6(±2.2) % | 5.4(±0.5) % | 17.9(±2.6) % | 23.2(±0.9) % | 26.8(±0,9) % | 39.3(±2.1) % | 2.9(±1.7) % | 27.8(±1.4) % | 31.4(±1.9) % | 35.1(±1.5) % | 34.6(±1.6) % | 36.9(±1.6) % | 56.9(±1.2) % | 70.9(±1.0) % | 72.5(±0.7) % | 77.5(±0.6) % | Inhibition of the Lepidium sativum seeds germination (ISG, %) [1, 13]: 80.4(±1.3) %; Inhibition of the root growth in pregerminated Lepidium sativum seeds (IRG, %) [2, 13]: 80.4(±0.3) % |
| CC(C)[C@H](N)C(=O)O.OCCN(CCO)CCO [[TEA][Val]] | 0.0(±0.9) % | 0.0(±1.7) % | 0.0(±1.2) % | 0.0(±1.2) % | 1.9(±0.5) % | 3.8(±1.7) % | 5.7(±0.5) % | 17.0(±0.5) % | 28.3(±0.5) % | 34.0(±1.3) % | 11.6% | 11.9(±3.3) % | 21.7(±2.8) % | 32.7(±2.9) % | 49.1(±2.5) % | 54.8(±2.6) % | 62.9(±2.4) % | 73.3(±1.5) % | 77.6(±1.7) % | 82.0(±1.0) % | Inhibition of the Lepidium sativum seeds germination (ISG, %) [1, 13]: 52.8(±1.3) %; Inhibition of the root growth in pregerminated Lepidium sativum seeds (IRG, %) [2, 13]: 89.9(±0.74) % |
| N[C@@H](CC(=O)O)C(=O)O.OCCN(CCO)CCO.OCCN(CCO)CCO [[TEA]2[Asp]] | 1.8(±0.1) % | 3.6(±1.3) % | 7.3(±0.8) % | 9.1(±0.5) % | 12.7(±0.8) % | 16.4(±1.3) % | 18.2(±0.8) % | 19.1(±1.3) % | 20.0(±0.5) % | 30.9(±0.9) % | 7.7(±1.9) % | 8.6(±2.1) % | 11.6(±1.9) % | 29.6(±2.0) % | 32.6(±1.5) % | 36.6(±1.6) % | 40.7(±1.2) % | 65.4(±0.7) % | 76.7(±0.7) % | 82.2(±0.6) % | Inhibition of the Lepidium sativum seeds germination (ISG, %) [1, 13]: 50.9(±0.8) %; Inhibition of the root growth in pregerminated Lepidium sativum seeds (IRG, %) [2, 13]: 86.2(±0.5) % |
